According to ChEMBL document CHEMBL4004803, “Syntheses and antibacterial activity of soluble 9-bromo substituted indolizinoquinoline-5,12-dione derivatives” (Eur J Med Chem, 2017):
Converted amounts (≈) assume the structure as drawn.

Legend:
Format in all cases: functional
Staphylococcus aureus [1] = assay: Antibacterial activity against methicillin-resistant Staphylococcus aureus 1103006 clinical isolate after 20 to 24 hrs by two-fold microdilution method
Staphylococcus aureus [2] = assay: Antibacterial activity against methicillin-resistant Staphylococcus aureus ATCC 43300 after 20 to 24 hrs by two-fold microdilution method
Staphylococcus aureus [3] = assay: Antibacterial activity against methicillin-resistant Staphylococcus aureus 1107027 clinical isolate after 20 to 24 hrs by two-fold microdilution method
Staphylococcus aureus [4] = assay: Antibacterial activity against methicillin-resistant Staphylococcus aureus 112047 clinical isolate after 20 to 24 hrs by two-fold microdilution method
Staphylococcus aureus [5] = assay: Antibacterial activity against methicillin-resistant Staphylococcus aureus 531026 clinical isolate after 20 to 24 hrs by two-fold microdilution method
Staphylococcus aureus [6] = assay: Antibacterial activity against methicillin-resistant Staphylococcus aureus 123152 clinical isolate after 20 to 24 hrs by two-fold microdilution method
Staphylococcus aureus [7] = assay: Antibacterial activity against methicillin-resistant Staphylococcus aureus 724244 clinical isolate after 20 to 24 hrs by two-fold microdilution method
Staphylococcus aureus [8] = assay: Antibacterial activity against methicillin-resistant Staphylococcus aureus 125025 clinical isolate after 20 to 24 hrs by two-fold microdilution method
Staphylococcus aureus [9] = assay: Antibacterial activity against methicillin-resistant Staphylococcus aureus 1101016 clinical isolate after 20 to 24 hrs by two-fold microdilution method
Staphylococcus aureus [10] = assay: Antibacterial activity against methicillin-resistant Staphylococcus aureus 305026 clinical isolate after 20 to 24 hrs by two-fold microdilution method
Staphylococcus aureus [11] = assay: Antibacterial activity against methicillin-resistant Staphylococcus aureus 1212057-1 clinical isolate after 20 to 24 hrs by two-fold microdilution method
Staphylococcus aureus [12] = assay: Antibacterial activity against methicillin-resistant Staphylococcus aureus 110325 clinical isolate after 20 to 24 hrs by two-fold microdilution method
Staphylococcus aureus [13] = assay: Antibacterial activity against methicillin-resistant Staphylococcus aureus 1025022 clinical isolate after 20 to 24 hrs by two-fold microdilution method
Staphylococcus aureus [14] = assay: Antibacterial activity against methicillin-resistant Staphylococcus aureus 921026 clinical isolate after 20 to 24 hrs by two-fold microdilution method
Staphylococcus aureus [15] = assay: Antibacterial activity against methicillin-resistant Staphylococcus aureus 219236 clinical isolate after 20 to 24 hrs by two-fold microdilution method
Staphylococcus aureus [16] = assay: Antibacterial activity against methicillin-resistant Staphylococcus aureus 20106-2 clinical isolate after 20 to 24 hrs by two-fold microdilution method
Streptococcus pneumoniae = assay: Antibacterial activity against Streptococcus pneumoniae ATCC 6305 after 20 to 24 hrs by two-fold microdilution method
Escherichia coli = assay: Antibacterial activity against Escherichia coli ATCC 25922 after 20 to 24 hrs by two-fold microdilution method
Staphylococcus aureus [17] = assay: Antibacterial activity against methicillin-resistant Staphylococcus aureus 1108204 clinical isolate after 20 to 24 hrs by two-fold microdilution method
Staphylococcus aureus [18] = assay: Antibacterial activity against methicillin-resistant Staphylococcus aureus 121026 clinical isolate after 20 to 24 hrs by two-fold microdilution method
Enterococcus faecalis = assay: Antibacterial activity against Enterococcus faecalis ATCC 29212 after 20 to 24 hrs by two-fold microdilution method
Staphylococcus aureus [19] = assay: Antibacterial activity against methicillin-resistant Staphylococcus aureus 523005 clinical isolate after 20 to 24 hrs by two-fold microdilution method
Staphylococcus aureus [20] = assay: Antibacterial activity against methicillin-resistant Staphylococcus aureus 1106003 clinical isolate after 20 to 24 hrs by two-fold microdilution method
Staphylococcus aureus [21] = assay: Antibacterial activity against methicillin-resistant Staphylococcus aureus 20339 clinical isolate after 20 to 24 hrs by two-fold microdilution method
Staphylococcus aureus [22] = assay: Antibacterial activity against methicillin-resistant Staphylococcus aureus 130031 clinical isolate after 20 to 24 hrs by two-fold microdilution method
Staphylococcus aureus [23] = assay: Antibacterial activity against methicillin-resistant Staphylococcus aureus 110432 clinical isolate after 20 to 24 hrs by two-fold microdilution method
Staphylococcus aureus [24] = assay: Antibacterial activity against methicillin-resistant Staphylococcus aureus 1211026 clinical isolate after 20 to 24 hrs by two-fold microdilution method
Staphylococcus aureus [25] = assay: Antibacterial activity against methicillin-resistant Staphylococcus aureus 912014 clinical isolate after 20 to 24 hrs by two-fold microdilution method
Staphylococcus aureus [26] = assay: Antibacterial activity against methicillin-resistant Staphylococcus aureus 502025 clinical isolate after 20 to 24 hrs by two-fold microdilution method
[27] = system: Staphylococcus epidermidis; assay: Antibacterial activity against Staphylococcus epidermidis ATCC 12228 after 20 to 24 hrs by two-fold microdilution method
Staphylococcus aureus [28] = assay: Antibacterial activity against methicillin-resistant Staphylococcus aureus 503025 clinical isolate after 20 to 24 hrs by two-fold microdilution method
Staphylococcus aureus [29] = assay: Antibacterial activity against methicillin-resistant Staphylococcus aureus 1024004-2 clinical isolate after 20 to 24 hrs by two-fold microdilution method
Staphylococcus aureus [30] = assay: Antibacterial activity against methicillin-resistant Staphylococcus aureus 112106 clinical isolate after 20 to 24 hrs by two-fold microdilution method
Staphylococcus aureus [31] = assay: Antibacterial activity against methicillin-resistant Staphylococcus aureus 122820-2 clinical isolate after 20 to 24 hrs by two-fold microdilution method
Staphylococcus aureus [32] = assay: Antibacterial activity against methicillin-resistant Staphylococcus aureus 103054 clinical isolate after 20 to 24 hrs by two-fold microdilution method
Staphylococcus aureus [33] = assay: Antibacterial activity against methicillin-resistant Staphylococcus aureus 11819 clinical isolate after 20 to 24 hrs by two-fold microdilution method
Staphylococcus aureus [34] = assay: Antibacterial activity against methicillin-resistant Staphylococcus aureus 519238 clinical isolate after 20 to 24 hrs by two-fold microdilution method
Staphylococcus aureus [35] = assay: Antibacterial activity against methicillin-resistant Staphylococcus aureus 19950 clinical isolate after 20 to 24 hrs by two-fold microdilution method
Staphylococcus aureus [36] = assay: Antibacterial activity against methicillin-resistant Staphylococcus aureus 625032 clinical isolate after 20 to 24 hrs by two-fold microdilution method
Staphylococcus aureus [37] = assay: Antibacterial activity against methicillin-resistant Staphylococcus aureus 110910-2 clinical isolate after 20 to 24 hrs by two-fold microdilution method
Staphylococcus aureus [38] = assay: Antibacterial activity against methicillin-resistant Staphylococcus aureus 10281-2 clinical isolate after 20 to 24 hrs by two-fold microdilution method
Staphylococcus aureus [39] = assay: Antibacterial activity against methicillin-resistant Staphylococcus aureus 212014 clinical isolate after 20 to 24 hrs by two-fold microdilution method
Staphylococcus aureus [40] = assay: Antibacterial activity against methicillin-resistant Staphylococcus aureus 118038 clinical isolate after 20 to 24 hrs by two-fold microdilution method
Staphylococcus aureus [41] = assay: Antibacterial activity against methicillin-resistant Staphylococcus aureus 109244 clinical isolate after 20 to 24 hrs by two-fold microdilution method
[42] = system: Staphylococcus haemolyticus; assay: Antibacterial activity against Staphylococcus haemolyticus CICC 10373 after 20 to 24 hrs by two-fold microdilution method
Staphylococcus aureus [43] = assay: Antibacterial activity against methicillin-resistant Staphylococcus aureus 1215028 clinical isolate after 20 to 24 hrs by two-fold microdilution method
Staphylococcus aureus [44] = assay: Antibacterial activity against methicillin-resistant Staphylococcus aureus 1212221 clinical isolate after 20 to 24 hrs by two-fold microdilution method

Question: For CN(C)CCCCCOC(=O)c1c2c(n3cc(Br)ccc13)C(=O)c1ncccc1C2=O, which MIC (Staphylococcus aureus [1]) is on record?
Answer: 16 µg/mL (≈ 33 µM)

Question: What about the MIC (Staphylococcus aureus [2]) of the same compound?
Answer: ≤ 0.0078 µg/mL

Question: What about the MIC (Staphylococcus aureus [3]) of the same compound?
Answer: 0.5 µg/mL (≈ 1.03 µM)

Question: And the MIC (Staphylococcus aureus [4])?
Answer: 0.125 µg/mL (≈ 0.258 µM)

Question: What about the MIC (Staphylococcus aureus [5]) of the same compound?
Answer: 0.5 µg/mL (≈ 1.03 µM)

Question: What about the MIC (Staphylococcus aureus [6]) of the same compound?
Answer: 0.25 µg/mL (≈ 0.516 µM)

Question: And the MIC (Staphylococcus aureus [7])?
Answer: 0.125 µg/mL (≈ 0.258 µM)

Question: And the MIC (Staphylococcus aureus [8])?
Answer: 0.5 µg/mL (≈ 1.03 µM)

Question: What about the MIC (Staphylococcus aureus [9]) of the same compound?
Answer: 0.25 µg/mL (≈ 0.516 µM)

Question: And the MIC (Staphylococcus aureus [10])?
Answer: 0.125 µg/mL (≈ 0.258 µM)

Question: And the MIC (Staphylococcus aureus [11])?
Answer: 0.125 µg/mL (≈ 0.258 µM)

Question: And the MIC (Staphylococcus aureus [12])?
Answer: 0.125 µg/mL (≈ 0.258 µM)

Question: And the MIC (Staphylococcus aureus [13])?
Answer: 0.5 µg/mL (≈ 1.03 µM)

Question: What about the MIC (Staphylococcus aureus [14]) of the same compound?
Answer: 0.25 µg/mL (≈ 0.516 µM)

Question: What about the MIC (Staphylococcus aureus [15]) of the same compound?
Answer: 0.125 µg/mL (≈ 0.258 µM)

Question: What about the MIC (Staphylococcus aureus [16]) of the same compound?
Answer: 1 µg/mL (≈ 2.06 µM)

Question: And the MIC (Streptococcus pneumoniae)?
Answer: 0.5 µg/mL (≈ 1.03 µM)

Question: And the MIC (Escherichia coli)?
Answer: 1 µg/mL (≈ 2.06 µM)

Question: And the MIC (Staphylococcus aureus [17])?
Answer: 0.125 µg/mL (≈ 0.258 µM)

Question: What about the MIC (Staphylococcus aureus [18]) of the same compound?
Answer: 0.125 µg/mL (≈ 0.258 µM)

Question: And the MIC (Enterococcus faecalis)?
Answer: 0.125 µg/mL (≈ 0.258 µM)

Question: What about the MIC (Staphylococcus aureus [19]) of the same compound?
Answer: 0.5 µg/mL (≈ 1.03 µM)

Question: And the MIC (Staphylococcus aureus [20])?
Answer: 16 µg/mL (≈ 33 µM)

Question: And the MIC (Staphylococcus aureus [21])?
Answer: 0.5 µg/mL (≈ 1.03 µM)

Question: What about the MIC (Staphylococcus aureus [22]) of the same compound?
Answer: 0.5 µg/mL (≈ 1.03 µM)

Question: What about the MIC (Staphylococcus aureus [23]) of the same compound?
Answer: 0.5 µg/mL (≈ 1.03 µM)

Question: And the MIC (Staphylococcus aureus [24])?
Answer: 0.25 µg/mL (≈ 0.516 µM)

Question: What about the MIC (Staphylococcus aureus [25]) of the same compound?
Answer: 0.5 µg/mL (≈ 1.03 µM)

Question: What about the MIC (Staphylococcus aureus [26]) of the same compound?
Answer: 0.5 µg/mL (≈ 1.03 µM)

Question: What about the MIC [27] of the same compound?
Answer: ≤ 0.0078 µg/mL

Question: And the MIC (Staphylococcus aureus [28])?
Answer: 0.5 µg/mL (≈ 1.03 µM)

Question: What about the MIC (Staphylococcus aureus [29]) of the same compound?
Answer: 0.5 µg/mL (≈ 1.03 µM)

Question: What about the MIC (Staphylococcus aureus [30]) of the same compound?
Answer: 0.25 µg/mL (≈ 0.516 µM)

Question: What about the MIC (Staphylococcus aureus [31]) of the same compound?
Answer: 0.125 µg/mL (≈ 0.258 µM)

Question: What about the MIC (Staphylococcus aureus [32]) of the same compound?
Answer: 0.5 µg/mL (≈ 1.03 µM)

Question: And the MIC (Staphylococcus aureus [33])?
Answer: 0.125 µg/mL (≈ 0.258 µM)

Question: And the MIC (Staphylococcus aureus [34])?
Answer: 1 µg/mL (≈ 2.06 µM)

Question: What about the MIC (Staphylococcus aureus [35]) of the same compound?
Answer: 0.5 µg/mL (≈ 1.03 µM)

Question: And the MIC (Staphylococcus aureus [36])?
Answer: 0.125 µg/mL (≈ 0.258 µM)

Question: What about the MIC (Staphylococcus aureus [37]) of the same compound?
Answer: 0.5 µg/mL (≈ 1.03 µM)

Question: And the MIC (Staphylococcus aureus [38])?
Answer: 0.25 µg/mL (≈ 0.516 µM)

Question: What about the MIC (Staphylococcus aureus [39]) of the same compound?
Answer: 0.063 µg/mL (≈ 0.13 µM)

Question: And the MIC (Staphylococcus aureus [40])?
Answer: 0.25 µg/mL (≈ 0.516 µM)

Question: And the MIC (Staphylococcus aureus [41])?
Answer: 0.5 µg/mL (≈ 1.03 µM)

Question: What about the MIC [42] of the same compound?
Answer: 0.25 µg/mL (≈ 0.516 µM)

Question: What about the MIC (Staphylococcus aureus [43]) of the same compound?
Answer: 0.125 µg/mL (≈ 0.258 µM)

Question: And the MIC (Staphylococcus aureus [44])?
Answer: 0.125 µg/mL (≈ 0.258 µM)
